Patent publication US7030087B2, “Synthetic approach to designed chemical structures” (priority 1996, dated 2006)

Key:
[1] = tested on: EC (endothelial cells); experiment: EC proliferation, 3[H]thymidine incorporation assay; type: cell-based
Method: (§1) Since the in vivo situation of tumor associated EC involves the low expression or even absence of ICAM-1, the next set of experiments aimed to study the ability to reinduce ICAM-I expression after bFBF preincubation. […] In these experiments, HUVEC were pretreated for 3 days with bFGF, subsequently PF4 was added for 3 days and, where indicated in the last 16 hours of culture 4 ng/ml TNFα was added. Human umbilical vein derived endothelial cells (HUVEC) were harvested from normal human umbilical cords by perfusion with 0.125% trypsin/EDTA as described previously. Cells were cultured in fibronectin (FN) coated tissue culture flasks in culture medium (RPMI-1640 with 20% human serum (HS), supplemented with 2 mM glutamine and 100 U/ml penicillin and 0.1 mg/ml streptomycin). Immunofluorescence using indirect PE-conjugated reagents required three separate incubations. 1×10^5 EC were fixed for 1 hour in 1% paraformaldehyde, resuspended in 20 μl appropriately diluted Mab and incubated for 1 hour on ice. Subsequently, cells were washed two times in PBS/BSA (0.1%) and incubated for another 30 minutes with biotinylated rabbit-anti-mouse Ig (Dako, Glostrup, Denmark). After another 2 washings, cells were incubated with streptavidin-phycoerythrin conjugate (Dako). Stained cells were analyzed on a FACScan flowcytometer. Data analysis was performed using PCLysys software (Becton Dickinson, Mountain View, Calif.). Statistical significance of observed differences was determined using the Student's t-test.
EC proliferation was measured using a ^3[H]thymidine incorporation assay. EC were seeded in flatbottomed 96-well tissue culture plates (5000 cells/well) and grown for 3 days, in culture medium. In some cultures the proliferation of EC was enhanced by incubation with 10 ng/ml bFGF. During the list 6 hours of the assay, the culture was pulsed with 0.5 μCi [methyl-^3H]thymidine/well. Results are expressed as the arithmetic mean counts per minute (cpm) of triplicate cultures.

[2] = tested on: ICAM-1; experiment: ICAM-1 expression on endothelial cells (immunofluorescence, FACScan); type: cell-based, human
Method: In a first series of experiments, PF4 and βpep peptides were tested for their ability to prevent bFGF (fibroblast growth factor) mediated downregulation of ICAM-1. […] Simultaneously 100 μg/ml of each PF4, βpep-14, βpep-16, or medium was added. Mean ICAM-1 fluorescence intensity values were determined.
as §1
The energy of EC to stimulation with inflammatory cytokines was the subject of a next series of experiments. For these experiments, HUVEC (human vascular endothelial cells) were pretreated with 10 ng/ml bFGF for 3 days. Subsequently, cells are subcultured for 3 days with […] in the presence of PF4. For the last 16 hours of the culture 4 ng/ml TNFα was added to induce upregulation of ICAM-1. […] The regulation of ICAM-1 at the protein level was confirmed in Northern blot analysis for detection of ICAM-1 message. In these experiments, HUVEC were cultured for 3 days with bFGF and treated for the last 4 and 24 hours with PF4 (100 μg/ml). TNFα was added 2 hours before isolation of RNA. RNA from a subconfluent EC cultures (75 cm^2 Petri-dishes) incubated with bFGF for different time-points was isolated using an RNA-zol kit (Campro Scientific, Houston, Tex.). Total RNA (10 μg) for each sample was separated in a 0.8% formaldehyde-denaturing gel, transferred to nitrocellulose (Hybond N+, Amersham International, Amersham, UK) and hybridized to a ^32P-labelled 1.9 Kb c-DNA probe, containing the functional sequence of the human ICAM-1 gene (a gift from Dr. B. Seed). Membranes were washed at a high stringency in 0.2×SSC, 0.1% SDS at 50° C. for 1 hour. Filters were exposed to X-ray films (Kodak X-omat, Eastman Kodak Company, Rochester, N.Y.) using an intensifying screen at −80° C. for not less than 12 hr. Autoradiograms were subjected to scanning using a laser densitometer (Model GS670, Bio-Rad, Hercules, Calif.) and data were analysed with the Molecular Analyst PC™ software. The intensity of the major ICAM-1 mRNA transcript was normalized with respect to actin mRNA expression used as a control.

[3] = tested on: endotoxin from E. coli 055:B5; experiment: Limulus amoebocyte lysate assay (E-TOXATE), endotoxin neutralization; type: biochemical; details: for Endotoxin Neutralization, % neutralization: 5.0 × 10^−6 M Peptide; for Endotoxin Neutralization, % neutralization / Endotoxin Neutralization, % at the effective dose / Endotoxin Neutralization, Ed, Effective M dose: Table 4; for Endotoxin Neutralization, % at the effective dose: at the Ed
Method: The peptides were tested for their ability to neutralize endotoxin. Quantitative endotoxin activities for these peptides were measured by Limulus amoebocyte lysate assay.
Limulus amoebocyte lysate assay: The ability of synthetic peptides to neutralize endotoxin was detected with the E-TOXATE kit manufactured by Sigma Chemicals (St. Louis, Mo.). […] Peptide or B/PI was incubated with LPS at room temperature for 5 min in 100 ul of a 1:2 dilution of pyrogen-free saline (pH 6.4). The reaction was started by addition of 100 ul of amoebocyte lysate and the final volume was 200 ul. Assuming a 10,000 molecular weight for LPS, the approximate molar ration of B/PI:LPS at neutralization was 3000 to 1.
The peptides were tested according to the method provided above. […] BG38L was used as a positive control in these experiments.

[4] = tested on: P. aeruginosa; experiment: Bactericidal activity assay; type: cell-based, Pseudomonas aeruginosa type 1; details: for Bactericidal Activity, % killing: 1.2 × 10^−7 M Peptide, 5 × 105 P. aeruginosa; for Bactericidal Activity, % killing at the effective dose: at the Ed for the same peptide; for Bactericidal Activity, Ed, Effective M dose: dose at which the % in brackets was found
From the text: Bacteria: P. aeruginosa type 1 is a clinical isolate maintained in the laboratory. The isolate remains a smooth strain and was serotyped by the scheme of Homma. The Pseudomonas strain was maintained by monthly transfer on blood agar plates.
The peptides can be assayed for bactericidal activity against a variety of organisms such as Pseudomonas aeruginosa type 1, P. cepacia ATCC 25608, E. coli B, and Staphylococcus aureus 502A by standard methods.
Pseudomonas aeruginosa type 1 is a clinical isolate. The isolate remains a smooth strain and was serotyped by the scheme of Homma (Jpn. J. Exp. Med. 46:329, 1976). A rough strain, E. coli B and S. aureus 502A were obtained from Paul Quie, University of Minnesota (Minneapolis, Minn.). The characteristics of the S. aureus strain have been described by Shinefield et al. (Amer. J. Dis. Chil. 105:646, 1963). Pseudomonas cepacia ATCC 25608 can be purchased from the ATCC. S. aureus and E. coli were maintained on nutrient agar plates and the Pseudomonas strains were maintained on blood agar plates.
Pyrogen-free solutions were used throughout the assay and all methods that follow. Log phase bacteria were prepared from a culture in brain heart infusion broth (Hovde et al. Infect. Immun. 54:142–148, 1986) and bacteria were washed and resuspended in saline with adjustment to an optical density at 650 nm to provide a yield of about 3×10^8 CFU/ml. Bacteria were diluted 1:10 in 0.08M citrate phosphate buffer, pH 5.6 or pH 7.0, for use in the assay. S. aureus rapidly lost viability in the pH 5.6 buffer and was studied only at pH 7.0. Bactericidal activity was determined by dose response over peptide concentrations ranging from about […] to about 4.1×10^−9M. Bactericidal activity was determined by dose response, preferably determining LD50 by linear regression.

[5] = tested on: endothelial cells (FBHEC, HUVEC); experiment: Endothelial cell proliferation assay of βpeptides 1–24 (FIG. 7); type: cell-based
Method: FIG. […] FIG. 7A provides ^3H-Thymidine incorporation data for FBHEC cells and FIG. 7B provides ^3H-Thymidine incorporation data for HUVEC cells.
βpeptides 1–24 were tested in an endothelial cell proliferation assay using ^3H-thymidine incorporation. […]

[6] = 0.02 U (0.2 pg) endotoxin from E. coli 055:B5
[7] = dose at which the % in brackets was found

Row | Substance | (3H)-thymidine incorporation ([1]; expt 4, 10 μg/ml, 10 ng/ml bFGF, medium 31954 ± 1220) [cpm] | (3H)-thymidine incorporation ([1]; expt 4, 10 μg/ml, no bFGF, medium 18904 ± 1501) [cpm] | (3H)-thymidine incorporation ([1]; expt 4, 25 μg/ml, 10 ng/ml bFGF, medium 31954 ± 1220) [cpm] | (3H)-thymidine incorporation ([1]; expt 4, 25 μg/ml, no bFGF, medium 18904 ± 1501) [cpm] | effect of other inhibitors of angiogenesis on ICAM-1 expression (in words) [2] | endotoxin neutralizing activity (in words) [3] | Endotoxin Neutralizing Activity, % neutralization ([3]; 5.0 × 10^−5 M peptide, 0.02 U (0.2 pg) endotoxin from E. coli 055:B5, Table 3) [%] | Endotoxin Neutralization, % neutralization [3, 6] [%] | Endotoxin neutralization, ED, Effective M dose ([3]; Table 3, dose at which the % in brackets was found) [µM] | Endotoxin Neutralization, % at the effective dose [3] [%] | Endotoxin Neutralization, Ed, Effective M dose [3, 7] [µM] | Bactericidal Activity, % killing [4] [%] | Bactericidal Activity, % killing at the effective dose [4] | Bactericidal Activity, Ed, Effective M dose [4] [nM] | control of endothelial cell proliferation (in words) [5] | effectiveness at decreasing endothelial cell growth ([5]; 0.26 micromolar) | (3H)-thymidine incorporation ([1]; expt 3, 100 μg/ml, 10 ng/ml bFGF, medium 3432 ± 232) [cpm]
1 | thrombospondin-1 [TSP-1] | 22338 ± 860 | 8865 ± 639 | 10267 ± 797 | 5565 ± 349 | same results | – | – | – | – | – | – | – | – | – | – | – | –
2 | ANIKLSVEMKLFKRHLKWKIIVKLNDGRELSLD [βpep-8] | – | – | – | – | – | best endotoxin neutralizing activity | 100 | 100 | 1.2 | 77.9 | 1.2 | 0 | (28.1), n = 3% | 960 | little cell proliferation activity | – | –
3 | SIQDLKVSLNLFRKQAKWKIIVKLNDGRELSLD [βpep-23] | – | – | – | – | – | best endotoxin neutralizing activity | – | 100 | – | 65.7 | 1.2 | 0 | 45.8% | 480 | – | about 30% | –
4 | interferon-γ inducible protein-10 [IP-10] | – | – | – | – | same results | – | – | – | – | – | – | – | – | – | – | – | 725 ± 95
